Data: US20100112040A1, “Preparation of Heavy Metal-Containing Nano-Liposomes and their Uses in Medical Therapy” (S.B. BIOTECHNOLOGIES LTD., priority 2006, published 2010)
Like-named read-outs stand apart in the source and are kept apart here.

How the values were obtained:
[1] = 200 μl i.p., 2 mg of gold/ml
Procedure: (§1) Balb/C mice which had tumors on their thighs (KHJJ line, breast cancer) were used in these experiments. The mice were injected i.p. with 200 μl of liposomes containing 2 mg of gold atoms per/ml solution, and after 24 hours the animals were dissected and various internal organs were harvested, which included the tumor, brain, heart, lungs, spleen, liver, kidneys, and blood. The organs were rinsed and prepared for ICP-MS analysis. In control experiments, mice were injected with a solution containing 2 mg of gold/ml without confinement in liposomes.

[2] = 200 μl i.p. of 2 mg/ml gold, 24 hours
Procedure: as §1
1. A solution of gold chloride of 2 mg/ml (2000). The gold was not confined in liposomes. 2. A gold-containing liposome solution (2000) of gold content of 2 mg/ml.

[Cl][Au]([Cl])[Cl] [gold chloride solution, gold chloride]
survival of injected mice (toxicity of gold) [1]: died after 24 hours
Gold atoms per cell ([2]; Bladder): 1.30E+10 atoms per cell
Gold atoms per cell ([2]; Blood): 1.37E+08 atoms per cell
Gold atoms per cell ([2]; Brain): 1.62E+07 atoms per cell
Gold atoms per cell ([2]; Heart): 1.63E+09 atoms per cell
Gold atoms per cell ([2]; Kidneys): 1.58E+09 atoms per cell
Gold atoms per cell ([2]; Liver): 1.88E+08 atoms per cell
Gold atoms per cell ([2]; Lungs): 1.36E+08 atoms per cell
Gold atoms per cell ([2]; Spleen): 3.34E+08 atoms per cell
Gold atoms per cell ([2]; Tumor): 1.10E+08 atoms per cell
